Data: patent USRE42890E1, “Furazanobenzimidazoles” (Basilea Pharmaceutica AG, priority 2003, dated 2011)
Like-named read-outs stand apart in the source and are kept apart here.

Experiments:
[1] = tested on: Jily; test: MTS proliferation assay, Jily; assay type: cell-based; conditions: 72 h incubation, read-out: MTS proliferation assay IC 50 Jily
Summary of the method: (§1)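 Viability after 72 h compound exposure at 10, 3, 1 and 0.3 μM final was scored by MTS absorbance (492 nm, 3 h reagent incubation), with cells kept in RPMI-1640 containing 5% or 10% fetal calf serum.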

[2] = tested on: HeLa; test: MTS proliferation assay, HeLa; assay type: cell-based, human; conditions: 72 h incubation, read-out: MTS proliferation assay IC 50 HeLa
Summary of the method: (§2)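 Proliferation: RPMI-1640/FCS complete medium, 37 °C, 7.5% CO2, cells plated 24 h pre-dose; compounds at 10, 3, 1, 0.3 μM final for 72 h; MTS, 492 nm.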

[3] = tested on: adherent cells or suspension cells; test: Hoechst 33342 nuclear staining (fraction of apoptotic nuclei); assay type: cell-based; set-up: key: 0 relating to no activity; 1 relating to weak activity comprising less than 70% of the cells; score 2 relating to strong activity comprising more than 70% of the cells
[4] = tested on: MRC5; test: MTS proliferation assay, MRC5; assay type: cell-based; conditions: MRC5, 72 h incubation, read-out: MTS proliferation assay IC 50 MRC5
Summary of the method: as §1

[5] = tested on: Jurkat; test: MTS proliferation assay, Jurkat; assay type: cell-based, human; conditions: 72 h incubation, read-out: MTS proliferation assay IC 50 Jurkat
Summary of the method: as §2

[6] = tested on: HT1080; test: MTS proliferation assay, HT1080; assay type: cell-based, human; conditions: HT1080, 72 h incubation, read-out: MTS proliferation assay IC 50 HT1080
Summary of the method: as §2

CC(=O)Nc1ccc(C(=O)Cn2c(-c3nonc3N)nc3ccccc32)cc1[N+](=O)[O-] [Example 64]
IC50 [1]: 10 to 100 nM
IC50 [2]: 10 to 100 nM
Hoechst 33342 nuclear staining score ([3]; H460, conc 0.01 μm): 0
Hoechst 33342 nuclear staining score ([3]; H460, conc 0.1 μm): 2 (score 2 relating to strong activity comprising more than 70% of the cells)
Hoechst 33342 nuclear staining score ([3]; H460, conc 1 μm): 2 (score 2 relating to strong activity comprising more than 70% of the cells)
Hoechst 33342 nuclear staining score ([3]; HeLa, conc 0.01 μm): 0
Hoechst 33342 nuclear staining score ([3]; HeLa, conc 0.1 μm): 2 (score 2 relating to strong activity comprising more than 70% of the cells)
Hoechst 33342 nuclear staining score ([3]; HeLa, conc 1 μm): 2 (score 2 relating to strong activity comprising more than 70% of the cells)
Hoechst 33342 nuclear staining score ([3]; Jily, conc 0.01 μm): 2 (score 2 relating to strong activity comprising more than 70% of the cells)
Hoechst 33342 nuclear staining score ([3]; Jily, conc 0.1 μm): 2 (score 2 relating to strong activity comprising more than 70% of the cells)
Hoechst 33342 nuclear staining score ([3]; Jily, conc 1 μm): 2 (score 2 relating to strong activity comprising more than 70% of the cells)
Hoechst 33342 nuclear staining score ([3]; Jurkat, conc 0.01 μm): 2 (score 2 relating to strong activity comprising more than 70% of the cells)
Hoechst 33342 nuclear staining score ([3]; Jurkat, conc 0.1 μm): 2 (score 2 relating to strong activity comprising more than 70% of the cells)
Hoechst 33342 nuclear staining score ([3]; Jurkat, conc 1 μm): 2 (score 2 relating to strong activity comprising more than 70% of the cells)
Hoechst 33342 nuclear staining score ([3]; MRC5, conc 0.01 μm): 0
Hoechst 33342 nuclear staining score ([3]; MRC5, conc 0.1 μm): 1 (1 relating to weak activity comprising less than 70% of the cells)
Hoechst 33342 nuclear staining score ([3]; MRC5, conc 1 μm): 1 (1 relating to weak activity comprising less than 70% of the cells)
Hoechst 33342 nuclear staining score ([3]; PBLs, conc 0.01 μm): 0
Hoechst 33342 nuclear staining score ([3]; PBLs, conc 0.1 μm): 0
Hoechst 33342 nuclear staining score ([3]; PBLs, conc 1 μm): 0
IC50 [4]: 10 to 100 nM
IC50 [5]: 10 to 100 nM
IC50 [6]: 10 to 100 nM

COc1cc(C(=O)Cn2c(-c3nonc3N)nc3ccccc32)ccc1O [Example 74, 4-[1-(3-Methoxy-4-hydroxyphenacyl)-1H-benzimidazol-2-yl]-furazan-3-yl-amine]
IC50 [1]: 100 to 1000 nM
IC50 ([2]; Homo sapiens): 100 to 1000 nM
Hoechst 33342 nuclear staining score ([3]; H460, conc 0.01 μm): 0
Hoechst 33342 nuclear staining score ([3]; H460, conc 0.1 μm): 0
Hoechst 33342 nuclear staining score ([3]; H460, conc 1 μm): 2 (score 2 relating to strong activity comprising more than 70% of the cells)
Hoechst 33342 nuclear staining score ([3]; HeLa, conc 0.01 μm): 0
Hoechst 33342 nuclear staining score ([3]; HeLa, conc 0.1 μm): 0
Hoechst 33342 nuclear staining score ([3]; HeLa, conc 1 μm): 2 (score 2 relating to strong activity comprising more than 70% of the cells)
Hoechst 33342 nuclear staining score ([3]; Jily, conc 0.01 μm): 0
Hoechst 33342 nuclear staining score ([3]; Jily, conc 0.1 μm): 0
Hoechst 33342 nuclear staining score ([3]; Jily, conc 1 μm): 2 (score 2 relating to strong activity comprising more than 70% of the cells)
Hoechst 33342 nuclear staining score ([3]; Jurkat, conc 0.01 μm): 0
Hoechst 33342 nuclear staining score ([3]; Jurkat, conc 0.1 μm): 0
Hoechst 33342 nuclear staining score ([3]; Jurkat, conc 1 μm): 2 (score 2 relating to strong activity comprising more than 70% of the cells)
Hoechst 33342 nuclear staining score ([3]; MRC5, conc 0.01 μm): 0
Hoechst 33342 nuclear staining score ([3]; MRC5, conc 0.1 μm): 0
Hoechst 33342 nuclear staining score ([3]; MRC5, conc 1 μm): 1 (1 relating to weak activity comprising less than 70% of the cells)
Hoechst 33342 nuclear staining score ([3]; PBLs, conc 0.01 μm): 0
Hoechst 33342 nuclear staining score ([3]; PBLs, conc 0.1 μm): 0
Hoechst 33342 nuclear staining score ([3]; PBLs, conc 1 μm): 0
IC50 ([4]; Homo sapiens): 100 to 1000 nM
IC50 ([5]; Homo sapiens): 100 to 1000 nM
IC50 ([6]; Homo sapiens, HT-1080): 100 to 1000 nM

Nc1nonc1-c1nc2ccccc2n1CC(=O)c1ccc(F)cc1 [Example 67]
IC50 [1]: 10 to 100 nM
IC50 [2]: 100 to 1000 nM
Hoechst 33342 nuclear staining score ([3]; H460, conc 0.01 μm): 0
Hoechst 33342 nuclear staining score ([3]; H460, conc 0.1 μm): 0
Hoechst 33342 nuclear staining score ([3]; H460, conc 1 μm): 2 (score 2 relating to strong activity comprising more than 70% of the cells)
Hoechst 33342 nuclear staining score ([3]; HeLa, conc 0.01 μm): 0
Hoechst 33342 nuclear staining score ([3]; HeLa, conc 0.1 μm): 0
Hoechst 33342 nuclear staining score ([3]; HeLa, conc 1 μm): 2 (score 2 relating to strong activity comprising more than 70% of the cells)
Hoechst 33342 nuclear staining score ([3]; Jily, conc 0.01 μm): 0
Hoechst 33342 nuclear staining score ([3]; Jily, conc 0.1 μm): 2 (score 2 relating to strong activity comprising more than 70% of the cells)
Hoechst 33342 nuclear staining score ([3]; Jily, conc 1 μm): 2 (score 2 relating to strong activity comprising more than 70% of the cells)
Hoechst 33342 nuclear staining score ([3]; Jurkat, conc 0.01 μm): 0
Hoechst 33342 nuclear staining score ([3]; Jurkat, conc 0.1 μm): 2 (score 2 relating to strong activity comprising more than 70% of the cells)
Hoechst 33342 nuclear staining score ([3]; Jurkat, conc 1 μm): 2 (score 2 relating to strong activity comprising more than 70% of the cells)
Hoechst 33342 nuclear staining score ([3]; MRC5, conc 0.01 μm): 0
Hoechst 33342 nuclear staining score ([3]; MRC5, conc 0.1 μm): 0
Hoechst 33342 nuclear staining score ([3]; MRC5, conc 1 μm): 1 (1 relating to weak activity comprising less than 70% of the cells)
Hoechst 33342 nuclear staining score ([3]; PBLs, conc 0.01 μm): 0
Hoechst 33342 nuclear staining score ([3]; PBLs, conc 0.1 μm): 0
Hoechst 33342 nuclear staining score ([3]; PBLs, conc 1 μm): 0
IC50 [4]: 100 to 1000 nM
IC50 [5]: 100 to 1000 nM
IC50 [6]: 100 to 1000 nM

Nc1nonc1-c1nc2ccccc2n1COc1ccccc1 [Example 7, 4-(1-Phenoxymethyl-1H-benzimidazol-2-yl)-furazan-3-ylamine]
IC50 [1]: 100 to 1000 nM
IC50 ([2]; Homo sapiens): 100 to 1000 nM
Hoechst 33342 nuclear staining score ([3]; H460, conc 0.01 μm): 0
Hoechst 33342 nuclear staining score ([3]; H460, conc 0.1 μm): 0
Hoechst 33342 nuclear staining score ([3]; H460, conc 1 μm): 2 (score 2 relating to strong activity comprising more than 70% of the cells)
Hoechst 33342 nuclear staining score ([3]; HeLa, conc 0.01 μm): 0
Hoechst 33342 nuclear staining score ([3]; HeLa, conc 0.1 μm): 0
Hoechst 33342 nuclear staining score ([3]; HeLa, conc 1 μm): 2 (score 2 relating to strong activity comprising more than 70% of the cells)
Hoechst 33342 nuclear staining score ([3]; Jily, conc 0.01 μm): 0
Hoechst 33342 nuclear staining score ([3]; Jily, conc 0.1 μm): 0
Hoechst 33342 nuclear staining score ([3]; Jily, conc 1 μm): 2 (score 2 relating to strong activity comprising more than 70% of the cells)
Hoechst 33342 nuclear staining score ([3]; Jurkat, conc 0.01 μm): 0
Hoechst 33342 nuclear staining score ([3]; Jurkat, conc 0.1 μm): 0
Hoechst 33342 nuclear staining score ([3]; Jurkat, conc 1 μm): 2 (score 2 relating to strong activity comprising more than 70% of the cells)
Hoechst 33342 nuclear staining score ([3]; MRC5, conc 0.01 μm): 0
Hoechst 33342 nuclear staining score ([3]; MRC5, conc 0.1 μm): 0
Hoechst 33342 nuclear staining score ([3]; MRC5, conc 1 μm): 0
Hoechst 33342 nuclear staining score ([3]; PBLs, conc 0.01 μm): 0
Hoechst 33342 nuclear staining score ([3]; PBLs, conc 0.1 μm): 0
Hoechst 33342 nuclear staining score ([3]; PBLs, conc 1 μm): 0
IC50 ([4]; Homo sapiens): 100 to 1000 nM
IC50 ([5]; Homo sapiens): 100 to 1000 nM
IC50 ([6]; Homo sapiens, HT-1080): 100 to 1000 nM

COCCOc1ccc(C(=O)Cn2c(-c3nonc3N)nc3ccccc32)cc1 [Example 77]
IC50 [1]: 100 to 1000 nM
IC50 [2]: 100 to 1000 nM
Hoechst 33342 nuclear staining score ([3]; H460, conc 0.01 μm): 0
Hoechst 33342 nuclear staining score ([3]; H460, conc 0.1 μm): 0
Hoechst 33342 nuclear staining score ([3]; H460, conc 1 μm): 2 (score 2 relating to strong activity comprising more than 70% of the cells)
Hoechst 33342 nuclear staining score ([3]; HeLa, conc 0.01 μm): 0
Hoechst 33342 nuclear staining score ([3]; HeLa, conc 0.1 μm): 0
Hoechst 33342 nuclear staining score ([3]; HeLa, conc 1 μm): 2 (score 2 relating to strong activity comprising more than 70% of the cells)
Hoechst 33342 nuclear staining score ([3]; Jily, conc 0.01 μm): 0
Hoechst 33342 nuclear staining score ([3]; Jily, conc 0.1 μm): 0
Hoechst 33342 nuclear staining score ([3]; Jily, conc 1 μm): 2 (score 2 relating to strong activity comprising more than 70% of the cells)
Hoechst 33342 nuclear staining score ([3]; Jurkat, conc 0.01 μm): 0
Hoechst 33342 nuclear staining score ([3]; Jurkat, conc 0.1 μm): 0
Hoechst 33342 nuclear staining score ([3]; Jurkat, conc 1 μm): 2 (score 2 relating to strong activity comprising more than 70% of the cells)
Hoechst 33342 nuclear staining score ([3]; MRC5, conc 0.01 μm): 0
Hoechst 33342 nuclear staining score ([3]; MRC5, conc 0.1 μm): 0
Hoechst 33342 nuclear staining score ([3]; MRC5, conc 1 μm): 1 (1 relating to weak activity comprising less than 70% of the cells)
Hoechst 33342 nuclear staining score ([3]; PBLs, conc 0.01 μm): 0
Hoechst 33342 nuclear staining score ([3]; PBLs, conc 0.1 μm): 0
Hoechst 33342 nuclear staining score ([3]; PBLs, conc 1 μm): 0
IC50 [4]: 100 to 1000 nM
IC50 [5]: 100 to 1000 nM
IC50 [6]: 100 to 1000 nM
